Where two headings read alike, the source gives them in different places.
Tests used:
α-glucosidase = assay: Rate of α-glucosidase enzyme reaction as a function of incubation time and concentration of Compound 1; format: biochemical, Saccharomyces species
Protocol: (§1) α-Glucosidase (E.C.3.2.1.20) enzyme inhibition assay was performed according to the slightly modified method of Matsui et al. α-glucosidase (E.C.3.2.1.20) from Saccharomyces species, purchased from Wako Pure Chemical Industries Ltd. (Wako 076-02841). The enzyme inhibition was measured spectrophotometrically at pH 6.9 and at 37° C. using 0.7 mM p nitrophenyl-α-D-glucopyranoside (PNP-G) as a substrate and 500 m units/mL enzyme, in 50 mM sodium phosphate buffer containing 100 mM NaCl. […] The increment in absorption at 400 nm, due to the hydrolysis of PNP-G by α-glucosidase, was monitored continuously on microplate spectrophotometer (Spectra Max Molecular Devices, USA).
Several unique observations were made during the studies conducted on Compound 1 activity. For example, it was observed that the enzyme generally looses its activity during the operational period. We have a set of experiment to see how the enzyme lost its activity with almost all activity gone within one hour. (Table 2).
As a result we conclude that the activity of Compound 1 is concentration dependent. The mechanism postulated here includes enhancement of stability of the enzyme to react with the substrate, which is not observed in negative control in the absence of this compound 1. From the structures it is clearly evidenced that the methylene-dioxy ring and as well as the sugar molecule is responsible for the enzyme activation. […] So the COO— group is playing a crucial role for the inhibitory effect on the enzyme and the gugar molecule and methylene-dioxy ring is responsible for the activation of the enzyme.

[1] = molecular target: α-glucosidase (E.C.3.2.1.20); assay: α-Glucosidase enzyme inhibition assay (PNP-G substrate, spectrophotometric); format: biochemical, Saccharomyces species
Protocol: as §1
[T. Matsui, C. Yoshimoto, K. Osajima, T. Oki, and Y. Osajima. Biosci. Biotech. Biochem., 1996, 60, 2019].

[2] = against α-glucosidase, pH 6.9, 37° C., 0.7 mM PNP-G, read-out: IC50 ± SEM
[3] = unit inferred, read-out: IC50 (inhibitory effect on the enzyme)

Row | SMILES | Rate of enzyme reaction (μM of alpha-glucose from the p-nitrophenyl at 400 nm) (α-glucosidase; 0.05 mM Compound 1, incubation 4 min) [µM] | Rate of enzyme reaction (μM of alpha-glucose from the p-nitrophenyl at 400 nm) (α-glucosidase; 0.05 mM Compound 1, incubation 24 min) [µM] | Rate of enzyme reaction (μM of alpha-glucose from the p-nitrophenyl at 400 nm) (α-glucosidase; 0.05 mM Compound 1, incubation 45 min) [µM] | Rate of enzyme reaction (μM of alpha-glucose from the p-nitrophenyl at 400 nm) (α-glucosidase; 0.05 mM Compound 1, incubation 66 min) [µM] | Rate of enzyme reaction (μM of alpha-glucose from the p-nitrophenyl at 400 nm) (α-glucosidase; 0.10 mM Compound 1, incubation 4 min) [µM] | Rate of enzyme reaction (μM of alpha-glucose from the p-nitrophenyl at 400 nm) (α-glucosidase; 0.10 mM Compound 1, incubation 24 min) [µM] | Rate of enzyme reaction (μM of alpha-glucose from the p-nitrophenyl at 400 nm) (α-glucosidase; 0.10 mM Compound 1, incubation 45 min) [µM] | Rate of enzyme reaction (μM of alpha-glucose from the p-nitrophenyl at 400 nm) (α-glucosidase; 0.10 mM Compound 1, incubation 66 min) [µM] | Rate of enzyme reaction (μM of alpha-glucose from the p-nitrophenyl at 400 nm) (α-glucosidase; 0.20 mM Compound 1, incubation 4 min) [µM] | Rate of enzyme reaction (μM of alpha-glucose from the p-nitrophenyl at 400 nm) (α-glucosidase; 0.20 mM Compound 1, incubation 24 min) [µM] | Rate of enzyme reaction (μM of alpha-glucose from the p-nitrophenyl at 400 nm) (α-glucosidase; 0.20 mM Compound 1, incubation 45 min) [µM] | Rate of enzyme reaction (μM of alpha-glucose from the p-nitrophenyl at 400 nm) (α-glucosidase; 0.20 mM Compound 1, incubation 66 min) [µM] | Rate of enzyme reaction (μM of alpha-glucose from the p-nitrophenyl at 400 nm) (α-glucosidase; 0.40 mM Compound 1, incubation 4 min) [µM] | Rate of enzyme reaction (μM of alpha-glucose from the p-nitrophenyl at 400 nm) (α-glucosidase; 0.40 mM Compound 1, incubation 24 min) [µM] | Rate of enzyme reaction (μM of alpha-glucose from the p-nitrophenyl at 400 nm) (α-glucosidase; 0.40 mM Compound 1, incubation 45 min) [µM] | Rate of enzyme reaction (μM of alpha-glucose from the p-nitrophenyl at 400 nm) (α-glucosidase; 0.40 mM Compound 1, incubation 66 min) [µM] | Effect on α-glucosidase enzymatic activity as compared to the negative control (α-glucosidase; at all the concentrations and time intervals) | IC50 ± SEM ([1]; against α-glucosidase, pH 6.9, 37° C., 0.7 mM PNP-G) | IC50 [1, 2] [µM] | IC50 [1, 3] [µM]
1 | CC1(C)OCC2(C[C@@]34CC[C@H]5[C@@](C)(CCC[C@@]5(C)C(=O)O[C@@H]5O[C@H](CO)[C@@H](O)[C@H](O)[C@H]5O)[C@@H]3CC[C@@H]2C4)O1 (single isomer, unassigned; ent-16) [Pulicarside (1), β-D-glucopyranosyl ent-16,17-acetonyl-(−)-kauran-19-oate] | 18.61 | 8.7 | 3.85 | 1.45 | 19.94 | 10.38 | 4.64 | 1.62 | 20.89 | 18.27 | 13.11 | 10.13 | 21.15 | 19.68 | 14.8 | 15.01 | enhanced the enzymatic activity | Enhancer | – | –
2 | C[C@@]12CCC[C@@](C)(C(=O)O[C@@H]3O[C@H](CO)[C@@H](O)[C@H](O)[C@H]3O)[C@H]1CC[C@@]13C[C@@H](CC[C@H]12)[C@@](O)(CO)C3 [Paniculoside IV (2), paniculoside IV] | – | – | – | – | – | – | – | – | – | – | – | – | – | – | – | – | – | – | 407 ± 20 | 407 ± 20
3 | C[C@@]12CCC[C@@](C)(C(=O)O)[C@H]1CC[C@@]13C[C@@H](CC[C@H]12)[C@@](O)(CO)C3 (single isomer, unassigned; ent-16) [ent-16,17-dihydroxy-(−)-kauran-19-oic acid] | – | – | – | – | – | – | – | – | – | – | – | – | – | – | – | – | – | – | 62.2 | 62.2 ± 0.008

Reference: patent US20080274987A1, “Novel alpha glucosidase activator, pulicarside 1” (HEJ Research Institute, priority 2006, published 2008)
